For the data set, the system named is pooled human hepatocytes. In words: Incubation with pooled human hepatocytes, metabolite identification by LC-QTOF-MS. The class given is in vitro ADME. Particulars: 5 µM, HHeps, up to 3 h. On the procedure: Incubations of the SCRAs with HHeps and subsequent metabolite identification were carried out as previously described in a published procedure, with slight modifications (Åstrand et al. [2019]; Stalberga et al. [2022]). To summarise, 5 µM of each SCRA was incubated with HHeps (100,000 cells) at 37 °C, 5% CO2 in a total volume of 100 μL of Williams E medium supplemented with L-glutamine and HEPES. Incubations were carried out in duplicate and quenched by the addition of 100 µL ice-cold acetonitrile at 0, 0.5, 1 and 3 h, after which the incubates were centrifuged at 1,100 × g for 15 min at 4 °C. The resulting supernatant was analysed by LC–QTOF-MS. On each day, negative controls (HHeps without drug) and degradation controls (drug without HHeps) were also incubated for 3 h.
Chromatographic separation was achieved using an Agilent 1290 Infinity ultra-high performance liquid chromatography (UHPLC) system (Agilent Technologies, Kista, Sweden); 4 µL supernatant was injected onto an Acquity HSS T3 column (150 × 2.1 mm, 1.8 μm) fitted with an Acquity VanGuard precolumn (Waters, Sollentuna, Sweden). Gradient elution was employed using 0.1% formic acid in water (A) and 0.1% formic acid in acetonitrile (B) mobile phases: 1% B (0–0.6 min); 1–20% B (0.6–0.7 min); 20–85% B (0.7–13 min); 85–95% B (13–15 min); 95% B (15–18 min); 95–1% B (18–18.1 min); 1% B (18.1–19 min), with a flow rate of 0.5 mL/min and column temperature of 60 °C. The UHPLC system was coupled to an Agilent 6550 iFunnel QTOF mass spectrometer (Agilent Technologies, Kista, Sweden) with a Dual Agilent Jet Stream electrospray ionisation (ESI) source. […]
To identify structure–metabolism relationships, the total proportion (%) that each type of biotransformation contributed to the summed abundance of metabolites (as measured by peak area) across the 0.5, 1 and 3 h incubations was determined. […]

The structures appear in SMILES notation.

Regarding `C=CCCCN1C(=O)/C(=N\NC(=O)c2ccccc2)c2ccccc21` [BZO-4en-POXIZID], the “abundances of metabolites relative to the parent compound” value was “small relative to the parent compound”.
Take `C=CCCCn1cc(C(=O)NC(C(=O)OC)C(C)(C)C)c2ccccc21` (stereo not drawn) [MDMB-4en-PICA]: the most abundant metabolite result was “ester hydrolysis metabolite”.
With `C=CCCCn1nc(C(=O)NC(C(=O)OC)C(C)(C)C)c2ccccc21` (stereo not drawn) [MDMB-4en-PINACA, methyl 3,3-dimethyl-2-{[1-(pent-4-en-1-yl)-1H-indazole-3-carbonyl]amino}butanoate], the most abundant metabolite result is given as “ester hydrolysis metabolite”.

For the origin of these results see paper PMC12367891, “Structure–metabolism relationships of 4-pentenyl synthetic cannabinoid receptor agonists using in vitro human hepatocyte incubations and high-resolution mass spectrometry” (Archives of Toxicology, 2025).
